{"source": "paper PMC5672024", "about": "“Selective Glucocorticoid Receptor Properties of GSK866 Analogs with Cysteine Reactive Warheads” (Frontiers in Immunology, 2017)", "system": "GR transactivation, p(GRE)2-50-luc reporter in HaCat cells", "assay": "p(GRE)2-50-luc reporter gene assay (GR transactivation)", "type": "cell-based", "settings": "6 h, 10 nM", "method": "In order to compare transactivation and transrepression potencies of the different synthesized GSK866 analogs, we performed GRE- and NFκB-luciferase-dependent reporter gene studies in stable transfected cell lines, as previously described ([3], [8]). HaCat cells expressing p(GRE)2 50-Luc and L929sA cells expressing p(GRE)250-Luc or p(NFκB)350-Luc were cultured in DMEM medium with 1% L-glutamine, supplemented with 10% feral bovine serum (FBS), 100 µg/ml streptomycin, and 100 IU/mL penicillin in a humidified 5% CO2 atmosphere. Cells were passaged every 2 days at a dilution of 1:6. Reporter gene cells were plated at a density of 0.5 × 10^5 cells/well in 24 well plates and grown overnight. p(GRE)250-Luc-dependent reporter gene cells were treated with solvent (DMSO) or compound (100 fM, 1 nM, 10 nM, 100 nM, and 1 µM) for 6 h, whereas in case of p(NFκB)350-Luc, TNF (2,500 IU/mL) was added 2 h following compound treatment. After incubation with the compounds, medium was removed and cells were washed twice with PBS followed by adding 100 µl of 1× lysis buffer (0.2 M K2HPO4, 0.2 M KH2PO4, Triton X-100, pH 7.6). 25 µl of lysate was assayed for luciferase activity by adding 50 µl of luciferase assay substrate (1 mM luciferin or luciferin salt, 3 mM ATP, and 15 mM MgSO4 in 30 mM HEPES buffer, pH 7.8) followed by 10 s mixing and measuring 1 s bioluminescence using an Envision multilabel reader (Perkin Elmer).\nFigure 3 Selective glucocorticoid receptor agonist GSK866 analogs UAMC-1217, UAMC-1218 but not UAMC-1158 and UAMC-1159 elicit selective glucocorticoid receptor-transactivation and NFκB-transrepression properties. Glucocorticoid response element (GRE)- and NFκB-luciferase-dependent reporter gene assays were performed in L929sA and HaCat reporter cells which were stably transfected with, respectively, p(NFκB)3-50luc or p(GRE)2-50-luc constructs. For p(GRE)2-50-luc reporter assays, cells were solvent-treated or induced with different concentrations of Dex (A), Dex-mesylate (Dex-Mes) (A), SEGRA GSK866 (C) or analogs UAMC-1158 (D), UAMC-1159 (E), UAMC-1217 (F), and UAMC-1218 (G) as indicated for a total exposure time of 6 h, whereas cells were cotreated for TNF (2,500 IU/ml) in the last 4 h for p(NFkB)3-50luc reporter assays (B–G). Corresponding lysates were assayed for luciferase activities and normalized for protein content as described in the Section “Materials and Methods.” Promoter activities are expressed as relative induction factor (± standard deviation) i.e., the ratio of expression levels recorded either at induced and non-induced conditions, with the latter taken to be 1.", "data": [{"smiles": "CCN(C[C@@](O)(CNC(=O)c1cnn(-c2ccc(F)cc2)c1N)C(F)(F)F)C(=O)c1c(Cl)ccc(NC(=O)CCl)c1Cl", "note": "[UAMC-1217]", "values": [{"measurement": "GR transactivation in GRE-luc reporter at 10 nM", "result": "significantly reduced GR transactivation to levels below transactivation observed with 10 nM of Dex"}]}]}
